From ChEMBL document CHEMBL3102797, “Kelsoenethiol and dikelsoenyl ether, two unique kelsoane-type sesquiterpenes, from the Formosan soft coral Nephthea erecta” (2014)
Values after ≈ are worked out from the molar mass of the structure shown.

How the values were obtained:
Assay type in all cases: functional
Settings in all cases: read-out: ED50 (the source's name)
P388 = experiment: Cytotoxicity against mouse P388 cells
HT-29 = experiment: Cytotoxicity against human HT-29 cells
A549 = experiment: Cytotoxicity against human A549 cells

Row | SMILES | EC50 (P388) [µg/mL] | EC50 (HT-29) [µg/mL] | EC50 (A549) [µg/mL]
1 | C=C(C)[C@H]1[C@@H]2[C@H](C)CC[C@@H]2[C@@]2(C)CC[C@@H]12 | 2.8 (≈ 13.7 µM) | 3.2 (≈ 15.7 µM) | 
2 | C/C(CS)=C1\[C@@H]2[C@H](C)CC[C@@H]2[C@@]2(C)CC[C@@H]12 (relative stereo) | 1.3 (≈ 5.5 µM) | 1.8 (≈ 7.61 µM) | 
3 | CO[C@H](C(=O)[C@@H](O)[C@@H](C)O)[C@@H]1Cc2cc3cc(O[C@H]4C[C@@H](O[C@@H]5C[C@@H](O)[C@H](O)[C@@H](C)O5)[C@H](O)[C@@H](C)O4)c(C)c(O)c3c(O)c2C(=O)[C@H]1O[C@H]1C[C@@H](O[C@@H]2C[C@@H](O)[C@@H](O[C@@H]3C[C@](C)(O)[C@H](O)[C@@H](C)O3)[C@@H](C)O2)[C@H](O)[C@@H](C)O1 [PLICAMYCIN] | 0.06 (≈ 0.0553 µM) | 0.08 (≈ 0.0737 µM) | 0.07 (≈ 0.0645 µM)
